# Results reported in BindingDB's records for doi:10.1021/ml1001536 (2010).
# Test: Antagonist activity at CCR5 in IL-10 stimulated human PBMC cells assessed as MIP-1beta induced chemotaxis
row,IC50 [nM],Compound
1,1.2,"Cc1ncnc(C)c1C(=O)N1CCC(C)(N2CCN(C3CCc4cc(C(F)(F)F)ccc43)[C@@H](C)C2)CC1 (stereo partly drawn) [4,6-Dimethyl-5-[(4-methyl-4-{(3S)-3-methyl-4-[5-(trifluoromethyl)-2,3-dihydro-1H-inden-1-yl]piperazin-1-yl}piperidin-1-yl)carbonyl]pyrimidine]"
2,1.1,"Cc1ncnc(C)c1C(=O)N1CCC(C)(N2CCN(C3CCc4cc(Br)ccc43)[C@@H](C)C2)CC1 (stereo partly drawn) [5-({4-[(3S)-4-(5-Bromo-2,3-dihydro-1H-inden-1-yl)-3-methylpiperazin-1-yl]-4-methylpiperidin-1-yl}carbonyl)-4,6-dimethylpyrimidine]"
3,3.5,"CO[C@@H]1Cc2cc(C(F)(F)F)ccc2[C@H]1N1CCN(C2(C)CCN(C(=O)c3c(C)ncnc3C)CC2)C[C@@H]1C [5-[(4-(3S)-4-[(1R,2R)-2-methoxy-5-(trifluoromethyl)-2,3-dihydro-1H-inden-1-yl]-3-methylpiperazin-1-yl-4-methylpiperidin-1-yl)carbonyl]-4,6-dimethylpyrimidine]"
